Measurements from ChEMBL document CHEMBL1240377, “Comparison of anidulafungin MICs determined by the clinical and laboratory standards institute broth microdilution method (M27-A3 document) and Etest for Candida species isolates” (2010).
≈ marks a conversion by molar mass, not a printed value. *1 amine or outer side, *2 acyl side, *3 side chain or, on linkers, in order; H or OH if unused. Where a SMILES comes first, the peptide text is derived from it. Bridges are numbered along the chain shown (N, C = ends). [ ]: non-standard residue; d: D form. The star is where a group is joined. hTyr(3S-OH,4S-OH,3'-OSO3H) = N[C@H](C(=O)O)[C@H](O)[C@@H](O)c1ccc(O)c(OS(=O)(=O)O)c1; pTerphenylCO(4''-OnC5H11) = CCCCCOc1ccc(-c2ccc(-c3ccc(C(=O)*)cc3)cc2)cc1; Orn(4R-OH,5R-OH) = O=C([C@H](C[C@@H](O)[C@@H](O)N[*:3])N[*:1])[*:2]; hTyr(3S-OH,4S-OH) = N[C@H](C(=O)O)[C@H](O)[C@@H](O)c1ccc(O)cc1; Pro(3S-OH,4S-Me) = C[C@H]1CN[C@H](C(=O)O)[C@H]1O; X1 = CCCCCOc1ccc(-c2cc(-c3ccc(C(=O)*)cc3)no2)cc1; Gln(3R-OH) = NC(=O)C[C@@H](O)[C@H](N)C(=O)O; Hyp = O=C(O)[C@@H]1C[C@@H](O)CN1

Key:
Assay type in all cases: functional
[1] = test system: Candida tropicalis; assay: Antimicrobial activity against Candida tropicalis after 24 hrs by CLSI M27-A3 broth microdilution method
[2] = test system: Meyerozyma guilliermondii; assay: Antimicrobial activity against Pichia guilliermondii ATCC 6260 after 24 hrs by CLSI M27-A3 broth microdilution method; conditions: ATCC 6260, 24 h
[3] = test system: Candida tropicalis; assay: Antimicrobial activity against Candida tropicalis after 24 hrs by Etest
[4] = test system: Nakaseomyces glabratus; assay: Antimicrobial activity against Candida glabrata after 24 hrs by Etest
[5] = test system: Candida albicans; assay: Antimicrobial activity against caspofungin-resistant Candida albicans NR4 expressing heterozygous […] mutant gene by Etest
[6] = test system: Candida albicans; assay: Antimicrobial activity against caspofungin-resistant Candida albicans T32 by CLSI M27-A3 broth microdilution method
[7] = test system: Candida albicans; assay: Antimicrobial activity against caspofungin-resistant Candida albicans T32 by Etest
[8] = test system: Candida albicans; assay: Antimicrobial activity against caspofungin-resistant Candida albicans CAI4R1 expressing heterozygous […] mutant gene by Etest
[9] = test system: Clavispora lusitaniae; assay: Antimicrobial activity against Clavispora lusitaniae ATCC 42720 after 24 hrs by CLSI M27-A3 broth microdilution method; conditions: ATCC 42720, 24 h
[10] = test system: Candida albicans; assay: Antimicrobial activity against caspofungin-resistant Candida albicans NR3 expressing homozygous […] mutant gene by CLSI M27-A3 broth microdilution method
[11] = test system: Meyerozyma guilliermondii; assay: Antimicrobial activity against Pichia guilliermondii ATCC 6260 after 24 hrs by Etest; conditions: ATCC 6260, 24 h
[12] = test system: Candida albicans; assay: Antimicrobial activity against caspofungin-resistant Candida albicans NR4 expressing heterozygous […] mutant gene by CLSI M27-A3 broth microdilution method
[13] = test system: Candida albicans; assay: Antimicrobial activity against caspofungin-resistant Candida albicans NR2 expressing heterozygous […] mutant gene by CLSI M27-A3 broth microdilution method
[14] = test system: Candida albicans; assay: Antimicrobial activity against caspofungin-resistant Candida albicans CAI4 by CLSI M27-A3 broth microdilution method
[15] = test system: Pichia kudriavzevii; assay: Antimicrobial activity against Issatchenkia orientalis after 24 hrs by CLSI M27-A3 broth microdilution method
[16] = test system: Candida albicans; assay: Antimicrobial activity against caspofungin-resistant Candida albicans NR3 expressing homozygous […] mutant gene by Etest
[17] = test system: Candida albicans; assay: Antimicrobial activity against caspofungin-resistant Candida albicans T26 by Etest
[18] = test system: Candida albicans; assay: Antimicrobial activity against caspofungin-resistant Candida albicans CAI4 by Etest
[19] = test system: Candida albicans; assay: Antimicrobial activity against Candida albicans after 24 hrs CLSI M27-A3 broth microdilution method
[20] = test system: Candida albicans; assay: Antimicrobial activity against caspofungin-resistant Candida albicans T25 by Etest
[21] = test system: Nakaseomyces glabratus; assay: Antimicrobial activity against Candida glabrata after 24 hrs by CLSI M27-A3 broth microdilution method
[22] = test system: Pichia kudriavzevii; assay: Antimicrobial activity against caspofungin-susceptible Issatchenkia orientalis CY-118 CLSI by M27-A3 broth microdilution method
[23] = test system: Candida parapsilosis; assay: Antimicrobial activity against Candida parapsilosis after 24 hrs by Etest; conditions: Lodderomyces parapsilosis
[24] = test system: Pichia kudriavzevii; assay: Antimicrobial activity against caspofungin-susceptible Candida krusei CY-118 by Etest
[25] = test system: Candida albicans; assay: Antimicrobial activity against caspofungin-resistant Candida albicans NR2 expressing heterozygous […] mutant gene by Etest
[26] = test system: Candida parapsilosis; assay: Antimicrobial activity against Candida parapsilosis after 24 hrs by CLSI M27-A3 broth microdilution method; conditions: Lodderomyces parapsilosis
[27] = test system: Candida albicans; assay: Antimicrobial activity against Candida albicans after 24 hrs by Etest
[28] = test system: Debaryomyces hansenii; assay: Antimicrobial activity against Candida famata after 24 hrs by CLSI M27-A3 broth microdilution method
[29] = test system: Candida albicans; assay: Antimicrobial activity against caspofungin-resistant Candida albicans CAI4R1 expressing heterozygous […] mutant gene by CLSI M27-A3 broth microdilution method
[30] = test system: Candida albicans; assay: Antimicrobial activity against caspofungin-resistant Candida albicans T26 by CLSI M27-A3 broth microdilution method
[31] = test system: Candida albicans; assay: Antimicrobial activity against caspofungin-resistant Candida albicans T25 by CLSI M27-A3 broth microdilution method
[32] = test system: Debaryomyces hansenii; assay: Antimicrobial activity against Candida famata after 24 hrs by Etest
[33] = test system: Pichia kudriavzevii; assay: Antimicrobial activity against Issatchenkia orientalis after 24 hrs by Etest
[34] = test system: Clavispora lusitaniae; assay: Antimicrobial activity against Clavispora lusitaniae ATCC 42720 after 24 hrs by Etest; conditions: ATCC 42720, 24 h

What does the source list for `CCCCCOc1ccc(-c2ccc(-c3ccc(C(=O)N[C@H]4C[C@@H](O)[C@@H](O)NC(=O)[C@@H]5[C@@H](O)[C@@H](C)CN5C(=O)[C@H]([C@@H](C)O)NC(=O)[C@H]([C@H](O)[C@@H](O)c5ccc(O)cc5)NC(=O)[C@@H]5C[C@@H](O)CN5C(=O)[C@H]([C@@H](C)O)NC4=O)cc3)cc2)cc1` [ANIDULAFUNGIN] ({pTerphenylCO(4''-OnC5H11)}-[Orn(4R-OH,5R-OH)]T[Hyp][hTyr(3S-OH,4S-OH)]T[Pro(3S-OH,4S-Me)]; lactam 1-C)?
MIC [1]: ≤ 0.016 µg/mL; MIC50 [2]: 1 µg/mL (≈ 0.877 µM); MIC90 [2]: 1 µg/mL (≈ 0.877 µM); MIC [3]: ≤ 0.016 µg/mL; MIC50 [4]: 0.016 µg/mL (≈ 0.014 µM); MIC90 [4]: 0.016 µg/mL (≈ 0.014 µM); MIC [5]: 0.5 µg/mL (≈ 0.438 µM); MIC [6]: 0.032 µg/mL (≈ 0.0281 µM); MIC [7]: ≤ 0.032 µg/mL; MIC [8]: 2 µg/mL (≈ 1.75 µM); MIC [9]: 0.03 µg/mL (≈ 0.0263 µM); MIC50 [9]: 0.03 µg/mL (≈ 0.0263 µM); MIC [10]: 1 µg/mL (≈ 0.877 µM); MIC50 [11]: 1 µg/mL (≈ 0.877 µM); MIC90 [11]: 8 µg/mL (≈ 7.02 µM); MIC [12]: 0.25 µg/mL (≈ 0.219 µM); MIC [13]: 0.12 µg/mL (≈ 0.105 µM); MIC [14]: ≤ 0.032 µg/mL; MIC50 [15]: 0.03 µg/mL (≈ 0.0263 µM); MIC90 [15]: 0.12 µg/mL (≈ 0.105 µM); MIC [16]: 32 µg/mL (≈ 28.1 µM); MIC [17]: 0.5 µg/mL (≈ 0.438 µM); MIC [18]: ≤ 0.032 µg/mL; MIC50 [19]: 0.016 µg/mL (≈ 0.014 µM); MIC90 [19]: 0.25 µg/mL (≈ 0.219 µM); MIC [20]: 2 µg/mL (≈ 1.75 µM); MIC50 [21]: 0.03 µg/mL (≈ 0.0263 µM); MIC90 [21]: 0.12 µg/mL (≈ 0.105 µM); MIC [22]: 0.5 µg/mL (≈ 0.438 µM); MIC50 [23]: 2 µg/mL (≈ 1.75 µM); MIC90 [23]: 8 µg/mL (≈ 7.02 µM); MIC [24]: ≤ 0.032 µg/mL; MIC [25]: 1 µg/mL (≈ 0.877 µM); MIC50 [26]: 0.5 µg/mL (≈ 0.438 µM); MIC90 [26]: 4 µg/mL (≈ 3.51 µM); MIC50 [27]: 0.016 µg/mL (≈ 0.014 µM); MIC90 [27]: 1 µg/mL (≈ 0.877 µM); MIC [28]: 0.03 µg/mL (≈ 0.0263 µM); MIC50 [28]: 0.03 µg/mL (≈ 0.0263 µM); MIC [29]: 0.5 µg/mL (≈ 0.438 µM); MIC [30]: 1 µg/mL (≈ 0.877 µM); MIC [31]: 1 µg/mL (≈ 0.877 µM); MIC [32]: 0.06 µg/mL (≈ 0.0526 µM); MIC50 [32]: 0.06 µg/mL (≈ 0.0526 µM); MIC50 [33]: 0.03 µg/mL (≈ 0.0263 µM); MIC90 [33]: 0.5 µg/mL (≈ 0.438 µM); MIC [34]: 0.06 µg/mL (≈ 0.0526 µM); MIC50 [34]: 0.06 µg/mL (≈ 0.0526 µM)

What does the source list for `CC[C@H](C)C[C@H](C)CCCCCCCCC(=O)N[C@H]1C[C@@H](O)[C@@H](NCCN)NC(=O)[C@@H]2[C@@H](O)CCN2C(=O)[C@H]([C@H](O)CCN)NC(=O)[C@H]([C@H](O)[C@@H](O)c2ccc(O)cc2)NC(=O)[C@@H]2C[C@@H](O)CN2C(=O)[C@H]([C@@H](C)O)NC1=O` [CASPOFUNGIN]?
MIC [6]: 0.25 µg/mL (≈ 0.229 µM); MIC [10]: 8 µg/mL (≈ 7.32 µM); MIC [12]: 2 µg/mL (≈ 1.83 µM); MIC [13]: 4 µg/mL (≈ 3.66 µM); MIC [14]: ≤ 0.032 µg/mL; MIC [22]: 4 µg/mL (≈ 3.66 µM); MIC [29]: 4 µg/mL (≈ 3.66 µM); MIC [30]: 8 µg/mL (≈ 7.32 µM); MIC [31]: 8 µg/mL (≈ 7.32 µM)

`CCCCCOc1ccc(-c2cc(-c3ccc(C(=O)N[C@H]4C[C@@H](O)[C@@H](O)NC(=O)[C@@H]5[C@@H](O)[C@@H](C)CN5C(=O)[C@H]([C@H](O)CC(N)=O)NC(=O)[C@H]([C@H](O)[C@@H](O)c5ccc(O)c(OS(=O)(=O)O)c5)NC(=O)[C@@H]5C[C@@H](O)CN5C(=O)[C@H]([C@@H](C)O)NC4=O)cc3)no2)cc1` [MICAFUNGIN] (X1-[Orn(4R-OH,5R-OH)]T[Hyp][hTyr(3S-OH,4S-OH,3'-OSO3H)][Gln(3R-OH)][Pro(3S-OH,4S-Me)]; lactam 1-C) was tested. Which MIC [6] did it give?
The MIC was ≤ 0.032 µg/mL.

And the MIC [10]?
The MIC was 1 µg/mL (≈ 0.787 µM).

And the MIC [12]?
The MIC was 0.25 µg/mL (≈ 0.197 µM).

What about the MIC [13] of the same compound?
The MIC was 0.25 µg/mL (≈ 0.197 µM).

And the MIC [14]?
The MIC was ≤ 0.032 µg/mL.

And the MIC [22]?
The MIC was 1 µg/mL (≈ 0.787 µM).

And the MIC [29]?
The MIC was 0.25 µg/mL (≈ 0.197 µM).

And the MIC [30]?
The MIC was 1 µg/mL (≈ 0.787 µM).

And the MIC [31]?
The MIC was 1 µg/mL (≈ 0.787 µM).
